Starred links: 1 amine or outer side, 2 acyl side, 3 side chain; linkers in the order of their positions; H or OH if unused. Non-standard residues stand in square brackets, D forms with d. Residues, ends and D or L forms follow the SMILES beside them. *: point of attachment. dAla(cis-4-NHCOPyz-cHex) = N[C@H](C[C@H]1CC[C@@H](NC(=O)c2cnccn2)CC1)C(=O)O; X2 = O=C(N[C@H]1CC[C@@H](C[C@H](N[*:1])C(=O)[*:2])CC1)c1cnccn1; X3 = O=C(N[C@H]1CC[C@H](C[C@@H](N[*:1])C(=O)[*:2])CC1)c1cnccn1; dPhe(4-Cl) = N[C@H](Cc1ccc(Cl)cc1)C(=O)O; Pyrimidin2yl(4,6-Me2) = Cc1cc(C)nc(*)n1; d2Nal = N[C@H](Cc1ccc2ccccc2c1)C(=O)O; Nicotinoyl(6-Me) = Cc1ccc(C(=O)*)cn1; Lys(iPr) = CC(C)NCCCC[C@H](N)C(=O)O; Orn(iPr) = CC(C)NCCC[C@H](N)C(=O)O; Pyrazinecarbonyl = O=C(c1cnccn1)*; d3Pal = N[C@H](Cc1cccnc1)C(=O)O; Cit = NC(=O)NCCC[C@H](N)C(=O)O; Nicotinoyl = O=C(c1cccnc1)*; Picolinoyl = O=C(c1ccccn1)*; Orn = NCCC[C@H](N)C(=O)O; Abu = CC[C@H](N)C(=O)O

For the first data set, the system named is anaesthesized rats. The data set is described as follows: wheal test, intradermal injection. The note with it: 10 ug peptide intradermally. The arrangement: Wheal (wheal response): unit not given here. In kind it is in vivo, rat. The gist of the method:
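Anaesthetized rats given intradermal injection of 10 ug peptide in 100 ul saline; area of the wheal calculated from its diameter.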
Take `CC(=O)N[C@H](Cc1ccc2ccccc2c1)C(=O)N[C@H](Cc1cccnc1)C(=O)N[C@H](Cc1ccc(Cl)cc1)C(=O)N[C@@H](CO)C(=O)N[C@@H](CCCCNC(=O)c1ccccn1)C(=O)N[C@H](CCCCNC(=O)c1ccccn1)C(=O)N[C@@H](CC(C)C)C(=O)N[C@@H](CCCNC(C)C)C(=O)N1CCC[C@H]1C(=O)N[C@H](C)C(N)=O` [compound 26364] (Ac-[d2Nal][d3Pal][dPhe(4-Cl)]SK(Picolinoyl)[dK](Picolinoyl)L[Orn(iPr)]P[dA]-NH2): the “Wheal Area” value was 116.2 ± 5.5 mm^2 /10 μg.

For `CC(=O)N[C@H](Cc1ccc2ccccc2c1)C(=O)N[C@H](Cc1ccc(Cl)cc1)C(=O)N[C@H](Cc1cccnc1)C(=O)N[C@@H](CO)C(=O)N[C@@H](C[C@H]1CC[C@@H](NC(=O)c2cnccn2)CC1)C(=O)N[C@H](CCCCNC(=O)c1ccccn1)C(=O)N[C@@H](CC(C)C)C(=O)N[C@@H](CCCCNC(C)C)C(=O)N1CCC[C@H]1C(=O)N[C@H](C)C(N)=O` [compound 26180] (Ac-[d2Nal][dPhe(4-Cl)][d3Pal]S[X2][dK](Picolinoyl)L[Lys(iPr)]P[dA]-NH2), the “Wheal Area” value is 99.5 ± 4.5 mm^2 /10 μg.

With `CC(=O)N[C@H](Cc1ccc2ccccc2c1)C(=O)N[C@H](Cc1ccc(Cl)cc1)C(=O)N[C@H](Cc1cccnc1)C(=O)N[C@@H](CO)C(=O)N[C@@H](CCCCNC(=O)c1ccccn1)C(=O)N[C@H](C[C@H]1CC[C@H](NC(=O)c2cnccn2)CC1)C(=O)N[C@@H](CC(C)C)C(=O)N[C@@H](CCCCNC(C)C)C(=O)N1CCC[C@H]1C(=O)N[C@H](C)C(N)=O` [IV-5] (Ac-[d2Nal][dPhe(4-Cl)][d3Pal]SK(Picolinoyl)[X3]L[Lys(iPr)]P[dA]-NH2), the “Wheal Area” value was 106.3 ± 4.3 mm^2 /10 μg.

As to `CC[C@H](NC(=O)[C@@H](CCCCNC(=O)c1ccccn1)NC(=O)[C@H](CCCCNC(=O)c1ccccn1)NC(=O)[C@H](CO)NC(=O)[C@@H](Cc1cccnc1)NC(=O)[C@@H](Cc1ccc(Cl)cc1)NC(=O)[C@@H](Cc1ccc2ccccc2c1)NC(C)=O)C(=O)N[C@@H](CCCCNC(C)C)C(=O)N1CCC[C@H]1C(=O)N[C@H](C)C(N)=O` [compound 25990] (Ac-[d2Nal][dPhe(4-Cl)][d3Pal]SK(Picolinoyl)[dK](Picolinoyl)[Abu][Lys(iPr)]P[dA]-NH2), the “Wheal Area” value is 91.0 ± 5.4 mm^2 /10 μg.

For `CCNC(=O)[C@@H]1CCCN1C(=O)[C@H](CCCCNC(C)C)NC(=O)[C@H](CC(C)C)NC(=O)[C@@H](C[C@H]1CC[C@@H](NC(=O)c2cnccn2)CC1)NC(=O)[C@H](CCCCNC(=O)c1ccccn1)NC(=O)[C@H](CO)NC(=O)[C@@H](Cc1cccnc1)NC(=O)[C@@H](Cc1ccc(Cl)cc1)NC(=O)[C@@H](Cc1ccc2ccccc2c1)NC(C)=O` [compound 26383] (Ac-[d2Nal][dPhe(4-Cl)][d3Pal]SK(Picolinoyl)[dAla(cis-4-NHCOPyz-cHex)]L[Lys(iPr)]P-NHEt), the “Wheal Area” value amounted to 119.6 ± 6.6 mm^2 /10 μg.

Regarding `CC(=O)N[C@H](Cc1ccc2ccccc2c1)C(=O)N[C@H](Cc1ccc(Cl)cc1)C(=O)N[C@H](Cc1cccnc1)C(=O)N[C@@H](CO)C(=O)N[C@@H](Cc1ccc(O)cc1)C(=O)N[C@H](CCCCNC(=O)c1ccccn1)C(=O)N[C@@H](CC(C)C)C(=O)N[C@@H](CCCNC(C)C)C(=O)N1CCC[C@H]1C(=O)N[C@H](C)C(N)=O` [compound 26363] (Ac-[d2Nal][dPhe(4-Cl)][d3Pal]SY[dK](Picolinoyl)L[Orn(iPr)]P[dA]-NH2), the “Wheal Area” value is reported as 113.2 ± 5.5 mm^2 /10 μg.

In the case of `CC(=O)N[C@H](Cc1ccc2ccccc2c1)C(=O)N[C@H](Cc1ccc(Cl)cc1)C(=O)N[C@H](Cc1cccnc1)C(=O)N[C@@H](CO)C(=O)N[C@@H](CCCCNC(=O)c1cccnc1)C(=O)N[C@H](C[C@H]1CC[C@@H](NC(=O)c2cnccn2)CC1)C(=O)N[C@@H](CC(C)C)C(=O)N[C@@H](CCCCNC(C)C)C(=O)N1CCC[C@H]1C(=O)N[C@H](C)C(N)=O` [compound 25806] (Ac-[d2Nal][dPhe(4-Cl)][d3Pal]SK(Nicotinoyl)[dAla(cis-4-NHCOPyz-cHex)]L[Lys(iPr)]P[dA]-NH2), the “Wheal Area” value is reported as 101.7 ± 5.0 mm^2 /10 μg.

Take `CC[C@H](NC(=O)[C@@H](CCCCNC(=O)c1ccccn1)NC(=O)[C@H](CCCNC(N)=O)NC(=O)[C@H](CO)NC(=O)[C@@H](Cc1cccnc1)NC(=O)[C@@H](Cc1ccc(Cl)cc1)NC(=O)[C@@H](Cc1ccc2ccccc2c1)NC(C)=O)C(=O)N[C@@H](CCCCNC(C)C)C(=O)N1CCC[C@H]1C(=O)N[C@H](C)C(N)=O` [compound 26382] (Ac-[d2Nal][dPhe(4-Cl)][d3Pal]S[Cit][dK](Picolinoyl)[Abu][Lys(iPr)]P[dA]-NH2): the “Wheal Area” value is 89.5 ± 5.5 mm^2 /10 μg.

For `CC(=O)N[C@H](Cc1ccc2ccccc2c1)C(=O)N[C@H](Cc1ccc(Cl)cc1)C(=O)N[C@H](Cc1cccnc1)C(=O)N[C@@H](CO)C(=O)N[C@@H](CCCCNC(=O)c1ccccn1)C(=O)N[C@H](C[C@H]1CC[C@@H](NC(=O)c2cnccn2)CC1)C(=O)N[C@@H](CC(C)C)C(=O)N[C@@H](CCCNC(=N)N)C(=O)N1CCC[C@H]1C(=O)N[C@H](C)C(N)=O` [compound 26347] (Ac-[d2Nal][dPhe(4-Cl)][d3Pal]SK(Picolinoyl)[dAla(cis-4-NHCOPyz-cHex)]LRP[dA]-NH2), the “Wheal Area” value is listed as 119.6 ± 8.5 mm^2 /10 μg.

Still in this data set, the particulars now being: Table I; 10 ug peptide intradermally.
As for `CC(=O)N[C@H](Cc1ccc2ccccc2c1)C(=O)N[C@H](Cc1ccc(Cl)cc1)C(=O)N[C@H](Cc1ccc(O)cc1)C(=O)N[C@@H](CO)C(=O)N[C@@H](CCCNC(=N)N)C(=O)N[C@H](CCCCNC(=O)c1cccnc1)C(=O)N[C@@H](CC(C)C)C(=O)N[C@@H](CCCNC(=N)N)C(=O)N1CCC[C@H]1C(=O)N[C@H](C)C(N)=O` [compound 24446] (Ac-[d2Nal][dPhe(4-Cl)][dY]SR[dK](Nicotinoyl)LRP[dA]-NH2), the Wheal came to 113.2 mm^2 /10.

For the compound `CC(=O)N[C@H](Cc1ccc2ccccc2c1)C(=O)N[C@H](Cc1ccc(Cl)cc1)C(=O)N[C@H](Cc1cccnc1)C(=O)N[C@@H](CO)C(=O)N[C@@H](CCCCNC(=O)c1cccnc1)C(=O)N[C@H](CCCCNC(=O)c1cccnc1)C(=O)N[C@@H](CC(C)C)C(=O)N[C@@H](CCCCNC(=O)c1cccnc1)C(=O)N1CCC[C@H]1C(=O)N[C@H](C)C(N)=O` [compound 24596] (Ac-[d2Nal][dPhe(4-Cl)][d3Pal]SK(Nicotinoyl)[dK](Nicotinoyl)LK(Nicotinoyl)P[dA]-NH2), the Wheal worked out at 122.8 ± 5.7 mm^2 /10.

On to `CC(=O)N[C@H](Cc1ccc2ccccc2c1)C(=O)N[C@H](Cc1ccc(Cl)cc1)C(=O)N[C@H](Cc1cccnc1)C(=O)N[C@@H](CO)C(=O)N[C@@H](CCCCNC(=O)c1ccc(C)nc1)C(=O)N[C@H](CCCCNC(=O)c1ccc(C)nc1)C(=O)N[C@@H](CC(C)C)C(=O)N[C@@H](CCCCNC(C)C)C(=O)N1CCC[C@H]1C(=O)N[C@H](C)C(N)=O` [compound 25386] (Ac-[d2Nal][dPhe(4-Cl)][d3Pal]SK(Nicotinoyl(6-Me))[dK](Nicotinoyl(6-Me))L[Lys(iPr)]P[dA]-NH2), for which the Wheal amounted to 126.1 mm^2 /10.

For `CC(=O)N[C@H](Cc1ccc2ccccc2c1)C(=O)N[C@H](Cc1ccc(Cl)cc1)C(=O)N[C@H](Cc1cccnc1)C(=O)N[C@@H](CO)C(=O)N[C@@H](CCCCNC(=O)c1cccnc1)C(=O)N[C@H](CCCCNC(=O)c1cccnc1)C(=O)N[C@@H](CC(C)C)C(=O)N[C@@H](CCCNc1nc(C)cc(C)n1)C(=O)N1CCC[C@H]1C(=O)N[C@H](C)C(N)=O` [compound 25143] (Ac-[d2Nal][dPhe(4-Cl)][d3Pal]SK(Nicotinoyl)[dK](Nicotinoyl)L[Orn](Pyrimidin2yl(4,6-Me2))P[dA]-NH2), the Wheal is 113.6 mm^2 /10.

In turn, `CC(=O)N[C@H](Cc1ccc2ccccc2c1)C(=O)N[C@H](Cc1ccc(Cl)cc1)C(=O)N[C@H](Cc1cccnc1)C(=O)N[C@@H](CO)C(=O)N[C@@H](Cc1ccc(O)cc1)C(=O)N[C@H](CCCCNC(=O)c1cccnc1)C(=O)N[C@@H](CC(C)C)C(=O)N[C@@H](CCCNC(C)C)C(=O)N1CCC[C@H]1C(=O)N[C@H](C)C(N)=O` [compound 24756] (Ac-[d2Nal][dPhe(4-Cl)][d3Pal]SY[dK](Nicotinoyl)L[Orn(iPr)]P[dA]-NH2) came in with a Wheal of 92.2 ± 2.9 mm^2 /10.

On to `CC(=O)N[C@H](Cc1ccc2ccccc2c1)C(=O)N[C@H](Cc1ccc(Cl)cc1)C(=O)N[C@H](Cc1cccnc1)C(=O)N[C@@H](CO)C(=O)N[C@@H](CCCCNC(=O)c1cnccn1)C(=O)N[C@H](CCCCNC(=O)c1cnccn1)C(=O)N[C@@H](CC(C)C)C(=O)N[C@@H](CCCCNC(C)C)C(=O)N1CCC[C@H]1C(=O)N[C@H](C)C(N)=O` [compound 25650] (Ac-[d2Nal][dPhe(4-Cl)][d3Pal]SK(Pyrazinecarbonyl)[dK](Pyrazinecarbonyl)L[Lys(iPr)]P[dA]-NH2), for which the Wheal is recorded as 110.2 mm^2 /10.

`CC(=O)N[C@H](Cc1ccc2ccccc2c1)C(=O)N[C@H](Cc1ccc(Cl)cc1)C(=O)N[C@H](Cc1cccnc1)C(=O)N[C@@H](CO)C(=O)N[C@@H](CCCCNC(C)C)C(=O)N[C@H](CCCCNC(=O)c1cccnc1)C(=O)N[C@@H](CC(C)C)C(=O)N[C@@H](CCCCNC(C)C)C(=O)N1CCC[C@H]1C(=O)N[C@H](C)C(N)=O` [compound 24543] (Ac-[d2Nal][dPhe(4-Cl)][d3Pal]S[Lys(iPr)][dK](Nicotinoyl)L[Lys(iPr)]P[dA]-NH2) displayed a Wheal of 132.7 mm^2 /10.

On to `CC(=O)N[C@H](Cc1ccc2ccccc2c1)C(=O)N[C@H](Cc1ccc(Cl)cc1)C(=O)N[C@H](Cc1cccnc1)C(=O)N[C@@H](CO)C(=O)N[C@@H](CCCCNC(=O)c1cccnc1)C(=O)N[C@H](Cc1cccnc1)C(=O)N[C@@H](CC(C)C)C(=O)N[C@@H](CCCNC(=N)N)C(=O)N1CCC[C@H]1C(=O)N[C@H](C)C(N)=O` [compound 22495] (Ac-[d2Nal][dPhe(4-Cl)][d3Pal]SK(Nicotinoyl)[d3Pal]LRP[dA]-NH2), for which the Wheal was 112 mm^2 /10.

`CC(=O)N[C@H](Cc1ccc2ccccc2c1)C(=O)N[C@H](Cc1ccc(Cl)cc1)C(=O)N[C@H](Cc1cccnc1)C(=O)N[C@@H](CO)C(=O)N[C@@H](CCCCNC(=O)c1ccccn1)C(=O)N[C@H](CCCCNC(=O)c1cccnc1)C(=O)N[C@@H](CC(C)C)C(=O)N[C@@H](CCCCNC(C)C)C(=O)N1CCC[C@H]1C(=O)N[C@H](C)C(N)=O` [compound 25510] (Ac-[d2Nal][dPhe(4-Cl)][d3Pal]SK(Picolinoyl)[dK](Nicotinoyl)L[Lys(iPr)]P[dA]-NH2) gave a Wheal of 116 ± 3.3 mm^2 /10.

Staying with this data set, now noted: Table XIV and text, unit not given.
Take `CC(=O)N[C@H](Cc1ccc2ccccc2c1)C(=O)N[C@H](Cc1ccc(Cl)cc1)C(=O)N[C@H](Cc1cccnc1)C(=O)N[C@@H](CO)C(=O)N[C@@H](C[C@H]1CC[C@@H](NC(=O)c2cnccn2)CC1)C(=O)N[C@H](CCCCNC(=O)c1ccccn1)C(=O)N[C@@H](CC(C)C)C(=O)N[C@@H](CCCCNC(C)C)C(=O)N1CCC[C@H]1C(=O)N[C@H](C)C(N)=O` [compound 26180] (Ac-[d2Nal][dPhe(4-Cl)][d3Pal]S[X2][dK](Picolinoyl)L[Lys(iPr)]P[dA]-NH2): the “Wheal (wheal response)” value worked out at 99.5 ± 4.5.

Source of the values: patent US5763404A, “Methods for using LHRH antagonists with low histamine release” (priority 1995, dated 1998).
